Our source for the IC50 values is BindingDB's records for doi:10.1021/jm801416q (Pharmacopeia, 2010).

Structures are written as SMILES.

This experiment in a line: Antagonist activity at human CCR1 in THP1 cells assessed as inhibition of MIP-1-alpha-induced chemotaxis after 3 hrs.

Consider `Cc1cc(C(F)(F)F)ccc1NC(=O)N1CCC[C@@H]1C(=O)N(C)Cc1ccc(Cl)cc1` [(R)-N2-(4-Chlorobenzyl)-N2-methyl-N1-[2-methyl-4-(trifluoromethyl)phenyl]pyrrolidine-1,2-dicarboxamide], for which the IC50 (commonly the concentration that inhibits the measured activity by half) stood at 16 nM.

On to `CN(Cc1ccc(Cl)cc1)C(=O)[C@H]1CCCN1C(=O)Nc1ccc(C(F)(F)F)cc1Cl` [(R)-N2-(4-Chlorobenzyl)-N1-[2-chloro-4-(trifluoromethyl)phenyl]-N2-methylpyrrolidine-1,2-dicarboxamide], for which the IC50 was determined as 35 nM.

On to `Cc1cc(C(F)(F)F)cc(C)c1NC(=O)N1CCC[C@@H]1C(=O)N(C)Cc1ccc(Cl)cc1` [(R)-N2-(4-Chlorobenzyl)-N1-[2,6-dimethyl-4-(trifluoromethyl)phenyl]-N2-methylpyrrolidine-1,2-dicarboxamide], for which the IC50 amounted to 6 nM.

`COc1ccc(NC(=O)N2CCC[C@@H]2C(=O)N(C)Cc2ccc(Cl)cc2)cc1` [(R)-N2-(4-Chlorobenzyl)-N1-(4-methoxyphenyl)-N2-methylpyrrolidine-1,2-dicarboxamide]: the IC50 came to 440 nM.
